This test deals with T1, human FPTase (Homo sapiens, UniProt P49354+P49356).
T1 construct: made in house
The experiment in a line: In vitro inhibition of Ras farnesyl transferase. It counts as biochemical. To be noted: recombinant FPTase; 650 nM Ras-CVLS, 100 nM farnesyl diphosphate; 30° C.; read-out: IC50 for inhibitory activity against human FPTase. The procedure:
Transferase Assays. Isoprenyl-protein transferase activity assays are carried out at 30° C. unless noted otherwise. A typical reaction contains (in a final volume of 50 μL): [^3H]farnesyl diphosphate, Ras protein, 50 mM HEPES, pH 7.5, 5 mM MgCl2, 5 mM dithiothreitol, 10 μM ZnCl2, 0.1% polyethyleneglycol (PEG) (15,000-20,000 mw) and isoprenyl-protein transferase. The FPTase employed in the assay is prepared by recombinant expression as described in Omer, C. A., Kral, A. M., Diehl, R. E., Prendergast, G. C., Powers, S., Allen, C. M., Gibbs, J. B. and Kohl, N. E. (1993) Biochemistry 32:5167-5176. After thermally pre-equilibrating the assay mixture in the absence of enzyme, reactions are initiated by the addition of isoprenyl-protein transferase and stopped at timed intervals (typically 15 min) by the addition of 1 M HCl in ethanol (1 mL). The quenched reactions are allowed to stand for 15 m (to complete the precipitation process). After adding 2 mL of 100% ethanol, the reactions are vacuum-filtered through Whatman GF/C filters. Filters are washed four times with 2 mL aliquots of 100% ethanol, mixed with scintillation fluid (10 mL) and then counted in a Beckman LS3801 scintillation counter.
For inhibition studies, assays are run as described above, except inhibitors are prepared as concentrated solutions in 100% dimethyl sulfoxide and then diluted 20-fold into the enzyme assay mixture. […]

Usually IC50 stands for the concentration that gives 50% inhibition.

With `Cn1cnc2c1C1c3ccc(C#N)c(c3)Oc3cccc(c3)S(=O)(=O)NCCC(=O)N1CC2` (racemic) [Example 1], the IC50 is at most 5 µM.

The values above are taken from patent publication US6350755B1, “Inhibitors of prenyl-protein transferase” (Merck & Co., Inc., priority 2000, dated 2002).
